{"source": "paper PMC9709915", "about": "“A Single Point Mutation Blocks the Entrance of Ligands to the Cannabinoid CB2 Receptor via the Lipid Bilayer” (Journal of Chemical Information and Modeling, 2022)", "test_in_all_cases": "inhibition of forskolin-stimulated cAMP, Lance-Ultra cAMP kit, HTRF", "assay_type_in_all_cases": "cell-based", "key": {"[1]": {"molecular_target": "T1, CB2R (hCB2R) (Homo sapiens, UniProt P34972)", "T1 construct": "gene CNR2; full-length hCB2R cDNA in pcDNA3.1, transiently expressed in HEK-293T cells; no tag mentioned", "text": "(§1) inhibition of forskolin-stimulated cAMP, Lance-Ultra cAMP kit, HTRF on CB2R (hCB2R)"}, "[2]": {"molecular_target": "T2, CB2R (hCB2R) (Homo sapiens, UniProt P34972, A282F)", "T2 construct": "gene CNR2; full-length hCB2R cDNA in pcDNA3.1, transiently expressed in HEK-293T cells; no tag mentioned", "T2 sequence (P34972 whole entry A282F)": "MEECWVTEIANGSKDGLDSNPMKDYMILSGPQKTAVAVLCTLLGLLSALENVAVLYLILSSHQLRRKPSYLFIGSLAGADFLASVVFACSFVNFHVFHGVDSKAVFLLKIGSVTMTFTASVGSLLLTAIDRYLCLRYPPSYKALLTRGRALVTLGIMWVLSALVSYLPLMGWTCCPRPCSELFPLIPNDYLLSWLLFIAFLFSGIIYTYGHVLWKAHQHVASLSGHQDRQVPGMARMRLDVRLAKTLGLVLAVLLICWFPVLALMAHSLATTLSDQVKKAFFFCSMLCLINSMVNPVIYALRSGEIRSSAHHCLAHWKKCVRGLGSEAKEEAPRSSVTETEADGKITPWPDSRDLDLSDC", "text": "as §1"}, "[3]": {"molecular_target": "T3, CB2R (hCB2R) (Homo sapiens, UniProt P34972, A282M)", "T3 construct": "gene CNR2; full-length hCB2R cDNA in pcDNA3.1, transiently expressed in HEK-293T cells; no tag mentioned", "T3 sequence (P34972 whole entry A282M)": "as the sequence (P34972 whole entry A282F) above, with F282M counted along it", "text": "as §1"}, "[4]": {"molecular_target": "T4, CB2R (hCB2R) (Homo sapiens, UniProt P34972, V36F)", "T4 construct": "gene CNR2; full-length hCB2R cDNA in pcDNA3.1, transiently expressed in HEK-293T cells; no tag mentioned", "T4 sequence (P34972 whole entry V36F)": "as the sequence (P34972 whole entry A282F) above, with V36F, F282A counted along it", "text": "as §1"}, "[5]": {"molecular_target": "T5, CB2R (hCB2R) (Homo sapiens, UniProt P34972, V36M)", "T5 construct": "gene CNR2; full-length hCB2R cDNA in pcDNA3.1, transiently expressed in HEK-293T cells; no tag mentioned", "T5 sequence (P34972 whole entry V36M)": "as the sequence (P34972 whole entry A282F) above, with V36M, F282A counted along it", "text": "as §1"}}, "data": [{"compound": "CCCC(C)(C)c1ccc2c(c1)OC(C)(C)[C@@H]1CC=C(C)C[C@@H]21", "note": "[JWH-133]", "values": [{"measurement": "EC50", "setting": "[1]", "result": 31.6, "unit": "nM"}, {"measurement": "EC50", "setting": "[2]", "result": 316, "unit": "nM"}, {"measurement": "EC50", "setting": "[3]", "result": 15.8, "unit": "nM"}, {"measurement": "EC50", "setting": "[4]", "result": 158, "unit": "nM"}, {"measurement": "EC50", "setting": "[5]", "result": 12.6, "unit": "nM"}]}]}
